This is an account of results in PMC5513211, “PA-6 inhibits inward rectifier currents carried by V93I and D172N gain-of-function KIR2.1 channels, but increases channel protein expression” (Journal of Biomedical Science, 2017).

As usually defined, the inhibition is the relative decrease from the control value, in per cent. The IC50 is the concentration needed to halve the response being measured. The low end stands for greater potency, the high end for weaker potency.

Changes are numbered by the printed parent chain. Like-named read-outs stand apart in the source and are kept apart here.

Assay [1] concerns WT KIR2.1. The following applies: 10 μM, cells stably expressing GFP-tagged KIR2.1; cited from earlier work.
In assay [2] the test system is WT, V93I and D172N KIR2.1 channels. The experiment in a line: Immunofluorescence microscopy of KIR2.1 localization in MES-1 cells. To be noted: 5 μM, 24 h. Format: cell-based, human. As for the experimental part: HEK293T and MES-1 cells were cultured on pre-coated (0.1% gelatin) glass coverslips and transfected using Lipofectamin (Invitrogen, Breda, The Netherlands). Cell fixation, immunolabeling and imaging were performed exactly as described earlier. […] HEK293T cells were imaged by confocal microscopy using a Zeiss LSM 700 confocal microscope (Carl Zeiss Microscopy GmbH, Germany) equipped with a 63× oil immersion objective (NA 1.4). […] MES-1 cells were imaged using a conventional Nikon eclipse 80i light microscopy equipped with a 40× objective (NA 0.75).

In assay [3] the target is T1, D172N KIR2.1 (Homo sapiens, UniProt P63252, D172N).
T1 construct: expressed in transfected cells; host or cells: HEK293T
T1 sequence (P63252 1-427 D172N): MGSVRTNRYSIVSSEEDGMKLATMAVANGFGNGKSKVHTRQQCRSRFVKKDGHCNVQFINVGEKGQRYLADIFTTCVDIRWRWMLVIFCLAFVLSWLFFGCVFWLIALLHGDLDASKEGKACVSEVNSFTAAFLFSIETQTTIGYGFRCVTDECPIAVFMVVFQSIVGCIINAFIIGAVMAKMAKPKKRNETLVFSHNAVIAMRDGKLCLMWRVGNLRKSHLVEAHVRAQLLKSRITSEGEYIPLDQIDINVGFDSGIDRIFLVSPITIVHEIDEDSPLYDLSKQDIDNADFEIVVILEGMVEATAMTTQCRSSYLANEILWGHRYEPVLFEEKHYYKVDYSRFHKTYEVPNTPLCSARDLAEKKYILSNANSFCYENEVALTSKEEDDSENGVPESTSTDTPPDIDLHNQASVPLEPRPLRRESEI
Nature of the assay: Whole cell patch clamp, D172N KIR2.1 currents. The assay is classed as cell-based. The following applies: whole cell mode. How it is done:
(§1) Mutations V93I and D172N were engineered into a human KCNJ2-pcDNA3 expression construct, using the QuikChange II XL Site-Directed Mutagenesis Kit (Stratagene, La Jolla, CA) and custom designed primers. The presence of the introduced mutations was confirmed by Sanger sequencing.
(§2) Whole cell patch clamp measurements were done as described before using an AxoPatch 200B amplifier controlled by pClamp9 software (Molecular devices, Sunnyvale, CA, USA) at 21 °C. Whole cell IKIR2.1 measurements were performed by applying 1 s test pulses ranging between −120 and +30 mV, in 10 mV increments, from a holding potential of −40 mV, and with series resistance compensation of at least 70%. Steady state current at the end of the pulse was normalized to cell capacitance and plotted versus test potential (corrected for liquid junction potential). Extracellular solution contained 140 mM NaCl, 5 mM KCl, 1 mM CaCl2, 1 mM MgCl2, 6 mM glucose, 17.5 mM NaHCO3, 15 mM HEPES, pH 7.4/NaOH. Pipette solution contained 125 mM potassium gluconate, 10 mM KCl, 5 mM HEPES, 5 mM EGTA, 2 mM MgCl2, 0.6 mM CaCl2, 4 mM Na2ATP, pH 7.20/KOH.
On the technique in general: Patch clamp records ionic current or voltage across a cell membrane.

Assay [4] concerns the target T2, WT KIR2.1 (Homo sapiens, UniProt P63252).
T2 construct: expressed in transfected cells; host or cells: HEK293T
T2 sequence (P63252 1-427): T1 sequence (P63252 1-427 D172N) with N172D
The experiment in a line: Whole cell patch clamp, WT KIR2.1 currents. Format: cell-based. The following applies: whole cell mode. As for the experimental part:
as §1, §2

Assay [5] has as its target T1, D172N KIR2.1. Nature of the assay: Western blot of KIR2.1 expression, transiently transfected HEK293T cells, D172N. The assay is classed as cell-based. The following applies: 24 h. How it is done: (§3) HEK293T cells were grown in 60 mm culture dishes containing 3 mL DMEM supplemented with 10% FCS, L-Glutamine and Pen-Strep, and transfected using linear polyethylenimine (PEI) (PolysciencesInc, Eppelheim, Germany) as described earlier. Cell lysates were prepared in buffer D (20 mM HEPES, 125 mM NaCl, 10% glycerol, 1 mM EDTA, 1 mM EGTA, 1 mM dithiothreitol, and 1% Triton X-100, pH 7.6, supplemented with 1 mM PMSF and 10 μg/mL aprotinin). 20 μg protein lysate was separated by 10% SDS-PAGE and blotted onto nitrocellulose membrane. Ponceau staining was used to reveal equal protein loading and subsequent quantification. Blots were blocked with 5% (v/v) […] in TBST (20 mM Tris-HCl pH 8.0, 150 mM NaCl, 0.05% (v/v) Tween-20) for 1 h at room temperature. KIR2.1 WT and mutants were detected by N-terminal KIR2.1 antibody (Santa Cruz Biotechnology, Dallas Tx, USA, cat. No. sc-18708) and peroxidase-conjugated donkey anti-goat secondary antibody (Jackson ImmunoResearch, West Grove, PA, cat. No. 705-035-003) followed by ECL detection procedure (GE Healthcare, Hoevelaken, The Netherlands). For quantification purposes, untransfected HEK293T cells were used as blank and protein levels were normalized to ponceau staining levels. Differences between group averages were tested by using a one-way ANOVA with a Bonferroni’s post-hoc test.
In general terms: In western blotting, separated proteins are transferred to a membrane and probed.

The target in assay [6] is T2, WT KIR2.1. Nature of the assay: Western blot of KIR2.1 expression, transiently transfected HEK293T cells, WT. Format: cell-based. To be noted: 24 h. How it is done:
as §3

Where [7] appears, read: at −50 mV, read-out: Inhibition of outward IK1.
The mark [8] stands for this setting: at −110 mV, read-out: Inhibition of inward IK1.

Take `N=C(Nc1ccc(OCCCCCOc2ccc(NC(=N)c3ccccc3)cc2)cc1)c1ccccc1` [PA-6]: in assay [1], the “Effect on WT KIR2.1 expression” value is given as “able to enhance expression of WT KIR2.1”. Besides, the “Subcellular location of KIR2.1 channels” value in assay [2] is listed as “resulted in intracellular accumulation”. Besides, the inhibition at 1 µM was 10 ± 6% in assay [3] (setting [7]), 30 ± 10% in assay [3] (setting [8]), 28 ± 36% in assay [4] (setting [7]) and 30 ± 16% in assay [4] (setting [8]). For the same compound, the inhibition at 3 µM amounted to 86 ± 7% in assay [3] (setting [7]), 83 ± 1% in assay [3] (setting [8]), 94 ± 6% in assay [4] (setting [7]) and 68 ± 15% in assay [4] (setting [8]). Moreover, the concentration for half-maximal inhibition (IC50) in assay [3] and in assay [4] was 1000 to 3000 nM each time. Besides, the “Increase of KIR2.1 expression level” value was determined as 4.8 ± 2.0 fold in assay [5] (5 μM) and 6.3 ± 1.5 fold in assay [6] (5 μM). For the same compound, the “Effect on KIR2.1 expression level at lower concentrations” value in assay [5] (0.2 and 1 μM) is “did not result in significant increased expression”; in assay [6] (0.2 and 1 μM), “did not result in significant increased expression”.
